Two compounds from patent US7632857B2, “Histamine H3 receptor agents, preparation and therapeutic uses” (Eli Lilly and Company, priority 2004, dated 2009) can be followed below.

The target in the assay is T1, H3R (Homo sapiens, UniProt Q9Y5N1).
T1 construct: expressed in transfected cells; pcDNA3.1(+) vector, G418 selection)
As to the kind of experiment: [35S] GTP γ [S] binding assay, antagonist activity in the presence of agonist. It is filed as biochemical. The conditions noted are these: membranes from H3R8-expressing HEK293 cell line; agonist R(−)alpha methylhistamine. The protocol: Membranes isolated as described in (Preparation of Histamine Receptor Subtype Membranes) were used in a [35S]GTPχS functional assay. Binding of [35S]GTPχS to membranes indicates agonist activity. Compounds of the invention of Formula I or Formula II were tested for their ability to inhibit binding in the presence of agonists. Alternately, the same transfected cell lines were used for a cAMP assay wherein H3R agonists inhibited forskolin-activated synthesis of cAMP. Compounds of Formula I or Formula II were tested for their ability to permit forskolin-stimulated cAMP synthesis in the presence of agonist.
cDNA for the human histamine 3 receptor was cloned and expressed as described in (A. Preparation H1R membranes), above. Transfected cells were selected using G418 (500μ/ml), grown, and tested for histamine binding by the SPA described above. For total binding, cells were assayed in a SPA reaction described above containing 50 mM Tris-HCL (assay buffer), pH 7.6, 1 mg wheat germ agglutinin SPA beads (Amersham Pharmacia Biotech, #RPNQ0001), and 1 nM (3H)-n-alpha-methylhistamine (NEN, NET1027) (total volume per well=200 μl). Thioperimide was added to determine non-specific binding. […]
Antagonist activity of selected compounds was tested for inhibition of [35S] […] Plates were counted in Wallac Trilux 1450 Microbeta scintillation counter for 1 minute. […]
(In general: GTPγS is a poorly hydrolysed GTP analogue; its binding reports G protein activation.)

The structures appear in SMILES notation.

As a reminder, the Ki is the equilibrium dissociation constant of an inhibitor or competing ligand from its target.

T1 sequence (Q9Y5N1 whole entry): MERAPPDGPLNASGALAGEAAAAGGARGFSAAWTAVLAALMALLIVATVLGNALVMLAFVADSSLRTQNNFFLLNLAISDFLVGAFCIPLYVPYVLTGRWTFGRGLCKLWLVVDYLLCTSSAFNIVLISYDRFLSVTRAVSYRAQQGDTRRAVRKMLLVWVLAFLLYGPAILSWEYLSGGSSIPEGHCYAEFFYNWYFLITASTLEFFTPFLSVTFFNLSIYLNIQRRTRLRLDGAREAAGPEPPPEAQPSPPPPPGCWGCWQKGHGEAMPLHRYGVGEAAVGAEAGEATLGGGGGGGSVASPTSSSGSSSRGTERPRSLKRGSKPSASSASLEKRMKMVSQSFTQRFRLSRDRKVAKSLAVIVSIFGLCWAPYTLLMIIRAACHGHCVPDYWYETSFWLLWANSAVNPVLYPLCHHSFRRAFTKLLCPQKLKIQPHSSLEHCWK

On to `O=C(c1ccc(-c2ccc(OCCN3CCCCC3)cc2)cc1)N1CCC[C@H]1CN1CCCC1`, for which the Ki came out at 32 nM. The same measure for `O=C(c1ccc(-c2ccccn2)cc1)N1CCC[C@H]1CN1CCCC1`: 4.9 nM.
